Measured values published in PubChem BioAssay AID624480 (The Scripps Research Institute Molecular Screening Center, 2012).
Activity calls are given as the source filed them.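 The calls were made as follows: active = inhibition of probe labeling in the gel above a set limit; inactive = inhibition at or below that limit.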

Target: Prolyl endopeptidase-like (Mus musculus) (UniProt Q8C167)
Test: mouse PREPL activity blockade, proteome background – biochemical, gel-based competitive ABPP, fluorescence, assay provider (AID 624480)
Conditions: mouse brain proteome spiked PREPL, FP-Rh gel ABPP; at 50 µM; stronger effect = higher value

Chain of Prolyl endopeptidase-like (Mus musculus) (Q8C167 whole entry, looked up): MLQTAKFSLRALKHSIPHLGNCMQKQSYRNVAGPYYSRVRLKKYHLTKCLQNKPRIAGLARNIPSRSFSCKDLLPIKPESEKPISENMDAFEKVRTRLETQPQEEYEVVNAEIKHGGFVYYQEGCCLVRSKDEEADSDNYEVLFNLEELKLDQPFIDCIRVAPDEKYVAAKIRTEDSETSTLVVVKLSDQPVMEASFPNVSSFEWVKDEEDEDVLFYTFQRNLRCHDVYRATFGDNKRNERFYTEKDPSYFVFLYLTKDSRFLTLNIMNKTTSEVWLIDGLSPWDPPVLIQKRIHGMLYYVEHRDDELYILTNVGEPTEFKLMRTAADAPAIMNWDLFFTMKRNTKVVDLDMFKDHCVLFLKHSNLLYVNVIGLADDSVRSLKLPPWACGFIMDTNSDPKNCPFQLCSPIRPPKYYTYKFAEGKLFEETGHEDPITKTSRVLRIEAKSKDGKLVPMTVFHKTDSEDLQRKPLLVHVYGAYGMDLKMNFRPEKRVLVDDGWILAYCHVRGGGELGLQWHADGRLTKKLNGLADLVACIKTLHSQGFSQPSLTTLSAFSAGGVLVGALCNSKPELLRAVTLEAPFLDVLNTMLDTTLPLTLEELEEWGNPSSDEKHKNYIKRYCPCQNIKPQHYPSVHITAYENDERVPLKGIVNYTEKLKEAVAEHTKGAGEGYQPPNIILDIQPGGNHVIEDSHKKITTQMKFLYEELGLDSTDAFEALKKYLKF

CCOc1ccc(CCNC(=O)c2ccc3c(=O)[nH]c4c(C(=O)NC(C)C)sc(=S)n4c3c2)cc1
inhibition: 25%

O=C(Nc1ccc2c(c1)OCCO2)c1cccc2nc3ccccc3nc12
inhibition: 15% (inactive)

CC(C)Cc1[nH]c(=O)c(C#N)c2c1CCC2
inhibition: 70%

COc1cc2nc(Nc3ccc(C)c(C)c3)nc(N)c2cc1OC
inhibition: 17% (inactive)

N#Cc1c2c(c(-c3ccccc3)[nH]c1=O)CCCC2
inhibition: 41%
